From PMC12809571, “Contribution to the Chemotherapy of Human Trypanosomiasis: Design, Synthesis, and Biological Evaluation of Dimeric 2‑Nitroimidazoles against Trypanosoma cruzi Amastigotes and Bloodstream Trypanosoma brucei” (ACS Omega, 2025)
Read-outs that look alike come from different tables or passages of the source.

Columns and labels:
[1] = tested on: amastigotes of T. cruzi (Tulahuen C2C4 LacZ strain); assay: Trypanocidal activity against T. cruzi amastigotes (CPRG, infected LLC-MK2); type: cell-based, Trypanosoma cruzi; settings: intracellular amastigotes in LLC-MK2, 120 h; for IC50: Trypanosoma cruzi, TULAHUEN, read-out: Activity against Amastigotes of T. cruzi (Tulahuen C2C4lacZ) IC50
Experimental: The antiparasitic activity assays used amastigotes of the Tulahuen C2C4-LacZ strain of T. cruzi. Amastigotes and trypomastigotes were cultured by successive reinfections in LLC-MK2 cell monolayers in DMEM supplemented with 5% FBS and incubated at 37 °C with 5% CO2. Trypomastigotes were collected from the culture supernatant between days 5 and 10 after infection and separated from nonadhered cells by differential centrifugation.
In a flat 96-well plate, a suspension of 1 × 10^4 LLC-MK2 cells (ATCC) in DMEM supplemented with 2% FBS was added. Cells were incubated at 37 °C with 5% CO2 for 4 h to promote adhesion, then washed with PBS to remove nonadherent cells. A suspension containing 1.5 × 10^5 T. cruzi trypomastigote forms of the Tulahuen C2C4 LacZ strain was added to the cells, followed by incubation at 37 °C with 5% CO2 for 20 h to establish infection. Noninternalized parasites were removed with three successive PBS washes, then treatment with serial dilutions (50–0.08 μM) of compounds in triplicate, prediluted in DMEM with 2% FBS. Controls included untreated cells, vehicle (0.2% v/v DMSO), and blank (no parasite added). Benznidazole, in serial dilutions, served as a positive control. After 5 days (120 h), 30 μL of a 0.5 mM CPRG solution in PBS was added along with 0.9% v/v Igepal CA-630. After a 2h incubation, absorbance was measured at 570 nm using a plate reader.

[2] = Cytotoxicity against LLC-MK2 cells (MTT); type: cell-based; settings: rhesus monkey
Experimental: (§1) Mammalian lineage cells were used to assess the cytotoxicity of the tested compounds. LLC-MK2, HEK-293, and RAW-264 cells (ATCC) were cultured in Dulbecco’s Modified Eagle’s Medium (DMEM) supplemented with 5% fetal bovine serum (FBS) and incubated at 37 °C in 5% CO2, with passages every 4–5 days. Cells were detached from the monolayer using a solution containing 0.25% w/v trypsin and 0.04% EDTA.
In a flat 96-well plate, a suspension of 1 × 10^4 LLC-MK2 cells (ATCC) in DMEM supplemented with 2% FBS was added. Cells were incubated at 37 °C (5% CO2) for 20 h, then washed with phosphate-buffered saline (PBS) to remove nonadherent cells. Cells were treated with serial dilutions (200–2 μM) of compounds in triplicate, prediluted in DMEM with 2% FBS. Untreated, vehicle (0.2% v/v DMSO), and blank (no cells added) controls were included. After 120 h of incubation, the supernatant was removed, the cell monolayer washed with PBS, and the culture medium refreshed. Then, 20 μL of a 3.0 mM MTT salt solution was added, followed by two additional hours of incubation. The supernatant was removed again, and the MTT formazan crystals were dissolved by adding 120 μL of DMSO per well. After 1.5 h of dark incubation at 37 °C to dissolve the crystals, the absorbance was measured at 570 nm using a plate reader.

[3] = tested on: amastigotes of T. cruzi (Tulahuen C2C4 LacZ strain); assay: Trypanocidal activity against T. cruzi amastigotes (CPRG, infected LLC-MK2); type: cell-based, Trypanosoma cruzi
[4] = tested on: Chagas disease; settings: chronic phase of Chagas disease; cited from earlier work
[5] = tested on: bloodstream trypomastigotes of T. b. brucei; assay: Trypanocidal activity against T. brucei brucei bloodstream (MTS); type: cell-based, Trypanosoma brucei brucei
Experimental: In a transparent 96-well plate, the parasites were incubated for 48 h at a concentration of 5 × 10^4 parasites per well, for 24 h, a concentration of 10 × 10^5 parasites per well was used in Hirumi’s Modified Iscove’s (HMI-9) medium supplemented with 10% FBS and a final 100 μL/well volume. Treatment was carried out using serial dilutions of the compounds (100–0.02 μM) and fexinidazole as the reference drug, both in triplicate. Triplicates of untreated parasites (live control), parasites treated with DMSO 0.2% v/v (vehicle), and wells without parasites (blank control) served as experimental controls. After incubation, 20 μL of MTS solution (5% PMS) was added, and the sample was incubated for another 2 h. Once the plate was visibly stained–due to the soluble formazan salt produced by the action of viable parasites from the reduction of MTS–the absorbance was measured at 490 nm using a plate reader.

[6] = tested on: RAW-264.7 cells; assay: Cytotoxicity against RAW-264.7 cells (MTT); type: cell-based
Experimental: as §1
In a 96-well transparent plate, a suspension of 1 × 10^4 RAW-264.7 cells (ATCC) in Roswell Park Memorial Institute (RPMI) medium supplemented with 10% FBS was added. Cells were incubated at 37 °C (5% CO2) for 20 h, then washed with PBS to remove nonadherent cells. Cells were treated with serial dilutions of the hybrids in triplicate (125–0.2 μM), prediluted in RPMI supplemented with 10% FBS. Controls included untreated samples, vehicle (0.2% v/v DMSO), and blank wells (no cells). […] Then, 20 μL of 3.0 mM MTT saline was added, followed by an additional 1.5 h of incubation. The supernatant was removed again, and the MTT formazan crystals were dissolved by adding 120 μL of DMSO per well. After incubating for 1.5 h in the dark at 37 °C to dissolve the crystals, absorbance was measured at 570 nm using a plate reader.

[7] = tested on: HEK-293 cells; assay: Cytotoxicity against HEK-293 cells (MTT); type: cell-based
Experimental: as §1
In a 96-well transparent plate, a suspension of 1 × 10^4 HEK-293 cells (ATCC) in DMEM medium supplemented with 10% FBS was added. Cells were incubated at 37 °C (5% CO2) for 20 h and then washed with PBS to remove nonadherent cells. The cells were treated with serial dilutions of the hybrids in triplicate (125–0.2 μM), prediluted in DMEM containing 10% FBS. The experiment included untreated controls, vehicle (0.2% v/v DMSO), and a blank (no added cells). […] Then, 20 μL of 3.0 mM MTT saline was added, followed by an additional 1.5 h of incubation. The supernatant was removed, and the MTT formazan crystals were dissolved by adding 120 μL of DMSO per well. After incubating for 1.5 h in the dark at 37 °C, the absorbance was measured at 570 nm using a plate reader.

[8] = Trypanosoma brucei, 48 h, read-out: T. b. brucei 48 h IC50
[9] = Mus musculus, RAW264.7, 48 h, read-out: RAW-264.7 48 h IC50
[10] = Homo sapiens, HEK293, 48 h, read-out: HEK-293 48 h IC50
[11] = Trypanosoma brucei, 48 h; read-out: T. b. brucei 48 h IC50
[12] = Mus musculus, RAW264.7, 48 h; read-out: RAW-264.7 48 h IC50
[13] = Homo sapiens, HEK293, 48 h; read-out: HEK-293 48 h IC50

Row | Compound | IC50 [1] [µM] | IC50 at 120 h [2] [µM] | SI (LLC-MK2) = (IC50 LLC-MK2)/(IC50 T. cruzi) [3] | cure rate [4] | IC50 at 120 h ([2]; LLC-MK2 cells) [µM] | SI (HEK-293) = (IC50 HEK-293)/(IC50 T. brucei brucei) [5] | SI (RAW-264.7) = (IC50 RAW-264.7)/(IC50 T. brucei brucei) [5] | IC50 [5, 8] [µM] | IC50 [6, 9] [µM] | IC50 [7, 10] [µM] | IC50 [5, 11] [µM] | IC50 [6, 12] [µM] | IC50 [7, 13] [µM] | Activity against Amastigotes of T. cruzi (Tulahuen C2C4lacZ) IC50 [1]
1 | O=[N+]([O-])c1ncc[nH]1 [Azomycin (3), 2-nitro-1H-imidazole, reference compound] | 5.74 ± 1.89 | > 500 | >87.10 | – | – | – | – | – | – | – | – | – | – | –
2 | O=C(Cn1ccnc1[N+](=O)[O-])NCc1ccccc1 [Benznidazole, benznidazole, reference compound] | 1.5 ± 0.33 | – | >133.33 | less than 20% | > 200 | – | – | – | – | – | – | – | – | –
3 | O=[N+]([O-])c1nccn1CCn1ccnc1[N+](=O)[O-] [Compound 4, 1,2-Bis(2-nitro-1H-imidazol-1-yl)ethane] | 9.13 ± 0.93 | > 200 | >21.90 | – | – | >5.83 | >5.83 | 21.4 ± 1.15 | > 125 | > 125 | – | – | – | –
4 | O=[N+]([O-])c1nccn1CCCn1ccnc1[N+](=O)[O-] [Compound 5, 1,3-Bis(2-nitro-1H-imidazol-1-yl)propane] | 3.2 ± 0.58 | > 200 | >62.50 | – | – | – | – | 16.4 ± 2.65 | > 125 | > 125 | – | – | – | –
5 | O=[N+]([O-])c1nccn1CCCCn1ccnc1[N+](=O)[O-] [Compound 6, 1,4-Bis(2-nitro-1H-imidazol-1-yl)butane] | 2.66 ± 0.78 | > 200 | >75.18 | – | – | >5.02 | >5.02 | – | – | – | 24.9 ± 7.89 | > 125 | > 125 | –
6 | O=[N+]([O-])c1nccn1CCCCCn1ccnc1[N+](=O)[O-] [Compound 7, 1,5-Bis(2-nitro-1H-imidazol-1-yl)pentane] | 1.38 ± 0.24 | > 200 | >144.9 | – | – | >12.42 | >12.42 | – | – | – | 10.1 ± 2.47 | > 125 | > 125 | –
7 | O=[N+]([O-])c1nccn1CCCCCCn1ccnc1[N+](=O)[O-] [Compound 8, 1,6-Bis(2-nitro-1H-imidazol-1-yl)hexane] | 0.59 ± 0.01 | > 200 | >338.98 | – | – | 16.27 | >23.27 | – | – | – | 5.37 ± 3.15 | > 125 | 87.4 ± 1.2 | submicromolar range
8 | O=[N+]([O-])c1nccn1CCCCCCCCn1ccnc1[N+](=O)[O-] [Compound 9, 1,8-Bis(2-nitro-1H-imidazol-1-yl)octane] | 1.19 ± 0.31 | > 100 | >84.03 | – | – | 2.79 | 8.98 | – | – | – | 7.98 ± 3.12 | 71.7 ± 3.67 | 22.3 ± 1.08 | –
9 | O=[N+]([O-])c1nccn1CCCCCCCCCCn1ccnc1[N+](=O)[O-] [Compound 10, 1,10-Bis(2-nitro-1H-imidazol-1-yl)decane] | 0.48 ± 0.11 | > 100 | >208.33 | – | – | 1.67 | 4.67 | – | – | – | 21 ± 1.9 | 98.4 ± 9.39 | 35.1 ± 5.31 | submicromolar range
10 | O=[N+]([O-])c1nccn1CCCCCCCCCCCCn1ccnc1[N+](=O)[O-] [Compound 11, 1,12-Bis(2-nitro-1H-imidazol-1-yl)dodecane] | 0.61 ± 0.13 | 52.4 ± 4.13 | 85.88 | – | – | 57.01 | >69.83 | – | – | – | 1.79 ± 0.63 | > 125 | 102 ± 8.54 | submicromolar range
11 | CSc1ccc(OCc2ncc([N+](=O)[O-])n2C)cc1 [Fexinidazole, fexinidazole, reference compound] | – | – | – | – | – | – | – | – | – | – | 1.2 ± 0.51 | – | – | –
12 | CC1CS(=O)(=O)CCN1/N=C/c1ccc([N+](=O)[O-])o1 (centres unmarked) [nifurtimox] | – | – | – | less than 20% | – | – | – | – | – | – | – | – | – | –
